Two compounds from article PMC6749218, “Structure-Based Pharmacophore Design and Virtual Screening for Novel Tubulin Inhibitors with Potential Anticancer Activity” (Molecules, 2019) can be followed below.

For this assay, the system named is T1, tubulin.
T1 construct: gene TUBB2B
Nature of the assay: turbidimetric tubulin polymerization assay ([…] nm). It counts as biochemical. The settings on record: tubulin 10 µM.

As to `COc1ccc(/C=C\c2cc(OC)c(OC)c(OC)c2)cc1O` [combretastatin A-4], the IC50 was […]. The compound `COc1ccc(OC)c(/C=C/C(=O)c2ccc(OC)cc2OC)c1` [compound 1, hit 1] came in with an IC50 of 3.7 ± 0.5 µM.
